The values that follow come from the PolyMetriX glass transition set.

`*C(=O)c1ccc2c(c1)C(=O)N(c1ccc(Oc3ccc(C(=O)c4cccc(C(=O)c5ccc(Oc6ccc(N7C(=O)c8ccc(*)cc8C7=O)cc6)cc5)c4)cc3)cc1)C2=O` (repeat unit) returned a glass transition temperature of 222.00 °C.
The compound `*CCCCCCCCCCN1C(=O)c2ccc(C(c3ccc4c(c3)C(=O)N(*)C4=O)(C(F)(F)F)C(F)(F)F)cc2C1=O` (repeat unit) registered a glass transition temperature of 123.00 °C.
For the compound `*CCCCCCCCCN1C(=O)c2ccc(C(c3ccc4c(c3)C(=O)N(*)C4=O)(C(F)(F)F)C(F)(F)F)cc2C1=O` (repeat unit), the glass transition temperature came to 135.00 °C.
As for `*CCCCCCCCN1C(=O)c2ccc(C(c3ccc4c(c3)C(=O)N(*)C4=O)(C(F)(F)F)C(F)(F)F)cc2C1=O` (repeat unit), the figure is 155.00 °C; as for `*CCCCCCCCc1nc2cc(-c3ccc4[nH]c(*)nc4c3)ccc2[nH]1` (repeat unit), 234.00 °C.
`*CCCCCCN1C(=O)c2ccc(C(c3ccc4c(c3)C(=O)N(*)C4=O)(C(F)(F)F)C(F)(F)F)cc2C1=O` (repeat unit) came in with a glass transition temperature of 155.00 °C.
As to `*CCCCCN1C(=O)c2ccc(C(c3ccc4c(c3)C(=O)N(*)C4=O)(C(F)(F)F)C(F)(F)F)cc2C1=O` (repeat unit), the glass transition temperature came to 180.00 °C.
`*CCCN1C(=O)c2ccc(C(c3ccc4c(c3)C(=O)N(*)C4=O)(C(F)(F)F)C(F)(F)F)cc2C1=O` (repeat unit) yielded a glass transition temperature of 190.00 °C.
`*CCN1C(=O)c2ccc(C(c3ccc4c(c3)C(=O)N(*)C4=O)(C(F)(F)F)C(F)(F)F)cc2C1=O` (repeat unit) registered a glass transition temperature of 180.00 °C.
The compound `*Oc1ccc(C(C)(C)c2ccc(Oc3ccc4c(=O)n5c6cc(-c7ccc8c(c7)nc7c9ccc(*)c%10cccc(c(=O)n87)c%109)ccc6nc5c5cccc3c45)cc2)cc1` (repeat unit) yielded a glass transition temperature of 380.00 °C.
As for `*Oc1ccc(C(C)(C)c2ccc(Oc3ccc4c(=O)n5c6cc(Oc7ccc8c(c7)nc7c9ccc(*)c%10cccc(c(=O)n87)c%109)ccc6nc5c5cccc3c45)cc2)cc1` (repeat unit), the figure is 334.00 °C.
In the case of `*Oc1ccc(C2(c3ccc(Oc4ccc(C(=O)c5cccc(C(=O)c6ccc(*)cc6)c5)cc4)cc3)CCC3CCCCC3C2)cc1` (repeat unit), the glass transition temperature turned out to be 194.00 °C.
As for `*Oc1ccc(S(=O)(=O)c2ccc(Oc3ccc(C(C)(C)c4ccc(*)c(C(OC)(C(F)(F)F)C(F)(F)F)c4)cc3C(OC)(C(F)(F)F)C(F)(F)F)cc2)cc1` (repeat unit), the glass transition temperature was determined as 163.00 °C.
As to `*Oc1ccc(S(=O)(=O)c2ccc(Oc3ccc(C(C)(C)c4ccc(*)c(C)c4)cc3C)cc2)cc1` (repeat unit), the glass transition temperature was found to be 180.00 °C.
The compound `*Oc1ccc(S(=O)(=O)c2ccc(Oc3ccc(C(C)(C)c4ccc(*)cc4)cc3[N+](=O)[O-])cc2)cc1` (repeat unit) showed a glass transition temperature of 190.00 °C.
As to `*Oc1ccc(S(=O)(=O)c2ccc(Oc3ccc(C(C)(c4ccc(*)cc4)c4ccc(O)cc4)cc3)cc2)cc1` (repeat unit), the glass transition temperature was 228.00 °C.
As for `*Oc1ccc(S(=O)(=O)c2ccc(Oc3ccc(C(c4ccc(*)cc4)c4ccccc4C(=O)O)cc3)cc2)cc1` (repeat unit), the figure is 223.00 °C; as for `*Oc1ccc(S(=O)(=O)c2ccc(Oc3ccc(C4(c5ccc(*)c(C)c5)CCCCC4)cc3C)cc2)cc1` (repeat unit), 197.00 °C.
For the compound `*Oc1ccc(S(=O)c2ccc(Oc3ccc(C(C)(C)c4ccc(*)cc4)cc3)cc2)cc1` (repeat unit), the glass transition temperature came to 165.00 °C.
`*Oc1ccc2cc(Oc3ccc(S(=O)(=O)c4ccc(*)cc4)cc3)ccc2c1` (repeat unit) returned a glass transition temperature of 231.00 °C.
For `*Oc1cccc(Oc2ccc(S(=O)(=O)c3ccc(*)cc3)cc2)c1` (repeat unit), the glass transition temperature stood at 177.00 °C.
As for `*Oc1ccccc1Oc1ccc(S(=O)(=O)c2ccc(*)cc2)cc1` (repeat unit), the figure is 171.00 °C.
In the case of `*Sc1ccc(P(=O)(c2ccccc2)c2ccc(Sc3ccc(-c4ccc(*)cc4)cc3)cc2)cc1` (repeat unit), the glass transition temperature worked out at 232.00 °C.
On to `*c1cc(Br)c(Oc2c(Br)cc(N3C(=O)c4ccc(-c5ccc6c(c5)C(=O)N(*)C6=O)cc4C3=O)cc2Br)c(Br)c1` (repeat unit), for which the glass transition temperature came to 287.00 °C.
For `*c1cc(N2C(=O)c3ccc(-c4ccc5c(c4)C(=O)N(*)C5=O)cc3C2=O)c(O)cc1O` (repeat unit), the glass transition temperature came to 343.00 °C.
In turn, `*c1ccc(*)c(C(=O)c2ccc(C)cc2)c1` (repeat unit) returned a glass transition temperature of 202.00 °C.
As for `*c1ccc(*)c(C(=O)c2ccc(F)cc2)c1` (repeat unit), the glass transition temperature turned out to be 194.00 °C.
The compound `*c1ccc(N(c2ccc(C#N)cc2)c2ccc(N3C(=O)c4ccc(Oc5ccc(C(C)(C)c6ccc(Oc7ccc8c(c7)C(=O)N(*)C8=O)cc6)cc5)cc4C3=O)cc2)cc1` (repeat unit) came in with a glass transition temperature of 230.00 °C.
As for `*c1ccc(Oc2ccc(-c3ccc(Oc4ccc(N5C(=O)c6ccc(Oc7ccc(C(C)(C)c8ccc(Oc9ccc%10c(c9)C(=O)N(*)C%10=O)cc8)cc7)cc6C5=O)cc4)cc3)cc2)cc1` (repeat unit), the glass transition temperature worked out at 220.00 °C.
For `*c1ccc(Oc2ccc(C(=O)c3cccc(C(=O)c4ccc(Oc5ccc(-c6nc(-c7ccc(-c8nc(*)c(-c9ccccc9)[nH]8)cc7)[nH]c6-c6ccccc6)cc5)cc4)c3)cc2)cc1` (repeat unit), the glass transition temperature was 270.00 °C.
`*c1ccc(Oc2ccc(C(=O)c3cccc(C(=O)c4ccc(Oc5ccc(-c6nc7ccccc7n6-c6ccc(-n7c(*)nc8ccccc87)cc6)cc5)cc4)c3)cc2)cc1` (repeat unit) displayed a glass transition temperature of 219.00 °C.
As for `*c1ccc(Oc2ccc(C(=O)c3cccc(C(=O)c4ccc(Oc5ccc(-n6c(=O)c7cc8c(=O)n(*)c(=O)c8cc7c6=O)cc5C(F)(F)F)cc4)n3)cc2)c(C(F)(F)F)c1` (repeat unit), the figure is 227.10 °C; as for `*c1ccc(Oc2ccc(C3(c4ccc(Oc5ccc(N6C(=O)c7ccc(Oc8ccc(C9(c%10ccc(Oc%11ccc%12c(c%11)C(=O)N(*)C%12=O)cc%10)CCC(C(C)(C)C)CC9)cc8)cc7C6=O)cc5)cc4)CC4CC3C3CCCC43)cc2)cc1` (repeat unit), 257.00 °C; as for `*c1ccc(Oc2ccc(Sc3ccc(Oc4ccc(-c5ccc(*)s5)cc4C(F)(F)F)cc3)cc2)c(C(F)(F)F)c1` (repeat unit), 142.00 °C.
Consider `*c1ccc(Oc2ccc(Sc3ccc(Oc4ccc(-c5cccc(*)n5)cc4C(F)(F)F)cc3)cc2)c(C(F)(F)F)c1` (repeat unit), for which the glass transition temperature worked out at 144.50 °C.
Take `*c1ccc(Oc2ccc3ccc(Oc4ccc(-n5c(=O)c6cc7c(=O)n(*)c(=O)c7cc6c5=O)cc4)cc3c2)cc1` (repeat unit): the glass transition temperature was 320.80 °C.
For `*c1ccc(Oc2cccc(Oc3ccc(N4C(=O)c5ccc(Oc6ccc(C(C)(C)c7ccc(Oc8ccc9c(c8)C(=O)N(*)C9=O)cc7)cc6)cc5C4=O)cc3)c2)cc1` (repeat unit), the glass transition temperature worked out at 246.00 °C.
As for `*c1ccc(S(=O)(=O)c2ccc(-n3c(=O)c4cc5c(=O)n(*)c(=O)c5cc4c3=O)cc2)cc1` (repeat unit), the glass transition temperature was 350.00 °C.
Compound `*c1ccc(S(=O)(=O)c2ccc(-n3nc(-c4ccccc4)c4cc(Oc5ccc(C(C)(C)c6ccc(Oc7ccc8c(-c9ccccc9)nn(*)c(=O)c8c7)cc6)cc5)ccc4c3=O)cc2)cc1` (repeat unit) showed a glass transition temperature of 210.50 °C.
With `*c1ccc(S(=O)(=O)c2ccc(-n3nc(-c4ccccc4)c4ccc(S(=O)(=O)c5ccc6c(-c7ccccc7)nn(*)c(=O)c6c5)cc4c3=O)cc2)cc1` (repeat unit), the glass transition temperature was 422.00 °C.
As for `*c1ccc(Sc2ccc(-n3c(=O)c4cc5c(=O)n(*)c(=O)c5cc4c3=O)cc2)cc1` (repeat unit), the figure is 400.00 °C; as for `*c1ccc(Sc2ccc(Oc3ccc(Sc4ccc(N5C(=O)c6ccc(Oc7ccc(C(C)(C)c8ccc(Oc9ccc%10c(c9)C(=O)N(*)C%10=O)cc8)cc7)cc6C5=O)cc4)cc3)cc2)cc1` (repeat unit), 199.00 °C.
As for `*c1ccc(Sc2ccc(Sc3ccc(Sc4ccc(-n5c(=O)c6cc7c(=O)n(*)c(=O)c7cc6c5=O)cc4)cc3)cc2)cc1` (repeat unit), the figure is 234.1 °C; as for `*c1ccc(Sc2ccc(Sc3ccc(Sc4ccc(S(*)(=O)=O)cc4S(=O)(=O)O)cc3)cc2)c(S(=O)(=O)O)c1` (repeat unit), 202.00 °C.
As for `*c1ccc(Sc2ccc(Sc3ccc(Sc4ccc(S(*)=O)cc4)cc3)cc2)cc1` (repeat unit), the figure is 133.00 °C.
For the compound `*c1ccc([Si](*)(C)C)s1` (repeat unit), the glass transition temperature was determined as 21.00 °C.
As for `*c1ccc2c(c1)C(=O)N(C1CCC(CC3CCC(N4C(=O)c5ccc(C(*)(C(F)(F)F)C(F)(F)F)cc5C4=O)CC3)CC1)C2=O` (repeat unit), the figure is 265.00 °C; as for `*c1ccc2c(c1)C(=O)N(c1cc(C(c3ccc(O)c(N4C(=O)c5ccc(C(*)(C(F)(F)F)C(F)(F)F)cc5C4=O)c3)(C(F)(F)F)C(F)(F)F)ccc1O)C2=O` (repeat unit), 330.00 °C.
Compound `*c1ccc2c(c1)C(=O)N(c1ccc(Oc3ccc(C(=O)c4cccc(C(=O)c5ccc(Oc6ccc(N7C(=O)c8ccc(C(*)(C(F)(F)F)C(F)(F)F)cc8C7=O)cc6)cc5)c4)cc3)cc1)C2=O` (repeat unit) registered a glass transition temperature of 236.00 °C.
Consider `*c1ccc2nc(-c3ccc4c(c3)C(=O)N(c3cc(C(*)(C(F)(F)F)C(F)(F)F)ccc3O)C4=O)oc2c1` (repeat unit), for which the glass transition temperature stood at 329.00 °C.
As for `*c1ccc2oc3ccc(S(=O)(=O)c4ccc(Oc5ccc(S(*)(=O)=O)cc5)cc4)cc3c2c1` (repeat unit), the glass transition temperature was found to be 290.00 °C.
The compound `*c1cccc(N2C(=O)c3cccc(Oc4ccc(C(C)(C)c5ccc(Oc6cccc7c6C(=O)N(*)C7=O)cc5)cc4)c3C2=O)c1` (repeat unit) registered a glass transition temperature of 227.50 °C.
